Measurements from patent US11752150B2, “Anti-tumor immunotherapy enhancer” (Nobuo Tsukamoto, priority 2017, dated 2023).

Test system: mouse cancer cells MCA205 IDO1WT
Test: Tumor volume in C57BL/6 mice implanted with MCA205 IDO1WT cells (1-MT and Y15)
Format: in vivo
Conditions: MCA205 IDO1WT in C57BL/6; Y15 600 μg/animal i.p. once a day from Day 5; 1-MT 4 mg/mL in drinking water from Day 5; n=5; FIG. 23
Method: On Day 0, 5×10^5 mouse cancer cells MCA205 IDO1WT expressing the wild-type mouse IDO1 gene were implanted into the ventral side of C57BL/6 mice.
The FAK inhibitor Y15 (MedChem Express) was dissolved in PBS and administered intraperitoneally once a day from Day 5 at 600 μg/100 μl/animal. In the control group, PBS was intraperitoneally administered at 100 μl/animal once a day from Day 5.
The major axis and minor axis of the tumor were measured every two days. The tumor volume was calculated as 0.5×(major axis)×(minor axis)^2.

## Cl.Cl.Cl.Cl.Nc1cc(N)c(N)cc1N [Y15, 1,2,4,5-benzenetetraamine tetrahydrochloride]
  tumor volume: a smaller tumor was formed as compared with the group to which neither drug was administered
